Assay results: patent publication US10954232B2, “Pyrazole derivative as ALK5 inhibitor and uses thereof” (HANMI PHARMACEUTICAL CO., LTD., priority 2016, dated 2021)

Each compound was assayed against T1, ALK5 kinase (Homo sapiens, UniProt P36897) (assay: Activity inhibition test on ALK5 enzyme (LanthaScreen Eu binding kinase assay)). Settings: kinase tracer 178, 60 minutes at room temperature.
T1 construct: GST; purchased Thermo Fisher Scientific Solutions
T1 sequence (P36897 34-503): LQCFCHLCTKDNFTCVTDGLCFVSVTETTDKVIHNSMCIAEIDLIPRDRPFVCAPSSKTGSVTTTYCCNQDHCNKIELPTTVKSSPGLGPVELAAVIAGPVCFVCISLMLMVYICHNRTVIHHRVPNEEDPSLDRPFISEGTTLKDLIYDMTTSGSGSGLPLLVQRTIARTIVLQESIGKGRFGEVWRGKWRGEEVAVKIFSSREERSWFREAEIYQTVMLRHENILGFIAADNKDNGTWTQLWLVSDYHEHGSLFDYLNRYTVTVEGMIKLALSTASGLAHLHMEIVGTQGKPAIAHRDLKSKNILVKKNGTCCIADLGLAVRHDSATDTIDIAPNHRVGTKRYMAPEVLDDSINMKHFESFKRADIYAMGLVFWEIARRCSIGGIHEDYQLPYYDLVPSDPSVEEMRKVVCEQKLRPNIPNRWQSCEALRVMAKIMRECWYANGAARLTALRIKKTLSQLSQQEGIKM
Outline: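 TR-FRET tracer-displacement format with final 5 nM ALK5, 2 nM Eu-GST antibody and 10 nM kinase tracer 178. Compound dilution series ran 1 μM–0.0001 μM, incubated 60 min at room temperature with stirring. Fluorescence was read ([…]), and IC50 came from percent inhibition versus control.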
CCCCNc1ccc(NC(=O)c2cc(-c3ccc4ncsc4c3)n(-c3cccc(C)n3)n2)cc1 [Example 87, 5-(benzo[d]thiazol-6-yl)-N-(4-(butylamino)phenyl)-1-(6-methylpyridin-2-yl)-1H-pyrazole-3-carboxyamide] showed an IC50 of 9.1 nM.
Cc1cccc(-n2nc(C(=O)Nc3ccc(NC4CC4)cc3)cc2-c2ccc3ncsc3c2)n1 [Example 88, 5-(benzo[d]thiazol-6-yl)-N-(4-(cyclopropylamino)phenyl)-1-(6-methylpyridin-2-yl)-1H-pyrazole-3-carboxyamide] was tested, and the IC50 was 3.5 nM.
Cc1cccc(-n2nc(C(=O)Nc3ccc(S(C)(=N)=O)cc3)cc2-c2ccc3ncsc3c2)n1 (centres unmarked) [Example 89, 5-(benzo[d]thiazol-6-yl)-1-(6-methylpyridin-2-yl)-N-(4-(S-methylsulfonimidoyl)phenyl)-1H-pyrazole-3-carboxyamide] showed an IC50 of 3.5 nM.
Compound COc1ccccc1NC(=O)c1cc(-c2ccc3ncnn3c2)n(-c2cccc(C)n2)n1 [Example 90, 5-([1,2,4]triazolo[1,5-α]pyridin-6-yl)-N-(2-methoxyphenyl)-1-(6-methylpyridin-2-yl)-1H-pyrazole-3-carboxyamide] has an IC50 of 5 nM.
With COc1cccc(NC(=O)c2cc(-c3ccc4ncnn4c3)n(-c3cccc(C)n3)n2)c1 [Example 91, 5-([1,2,4]triazolo[1,5-α]pyridin-6-yl)-N-(3-methoxyphenyl)-1-(6-methylpyridin-2-yl)-1H-pyrazole-3-carboxyamide] the IC50 was 10 to 100 nM.
For COc1ccccc1NC(=O)c1cc(-c2ccc3ncnn3c2)n(-c2cccc(C)n2)n1 [Example 92, 5-([1,2,4]triazolo[1,5-α]pyridin-6-yl)-N-(2-methoxyphenyl)-1-(6-methylpyridin-2-yl)-1H-pyrazole-3-carboxyamide], the IC50 was 10 to 100 nM.
Compound Cc1cccc(-n2nc(C(=O)Nc3ccc(O)cc3)cc2-c2ccc3ncnn3c2)n1 [Example 93, 5-([1,2,4]triazolo[1,5-α]pyridin-6-yl)-N-(4-hydroxyphenyl)-1-(6-methylpyridin-2-yl)-1H-pyrazole-3-carboxyamide] has an IC50 of 3.9 nM.
Cc1cccc(-n2nc(C(=O)Nc3ccc(OC(C)C)cc3)cc2-c2ccc3ncnn3c2)n1 [Example 94] showed an IC50 of about 10 nM.
Compound COCCOc1ccc(NC(=O)c2cc(-c3ccc4ncnn4c3)n(-c3cccc(C)n3)n2)cc1 [Example 95, 5-([1,2,4]triazolo[1,5-α]pyridin-6-yl)-N-(4-(2-methoxyethoxy)phenyl)-1-(6-methylpyridin-2-yl)-1H-pyrazole-3-carboxyamide] has an IC50 of 25 nM.
Cc1cccc(-n2nc(C(=O)Nc3ccc4c(c3)OCO4)cc2-c2ccc3ncnn3c2)n1 [Example 96, 5-([1,2,4]triazolo[1,5-α]pyridin-6-yl)-N-(benzo[d][1,3]dioxol-5-yl)-1-(6-methylpyridin-2-yl)-1H-pyrazole-3-carboxyamide] was tested, and the IC50 was 3.5 nM.
Compound COc1ccc(NC(=O)c2cc(-c3ccc4ncnn4c3)n(-c3cccc(C)n3)n2)c(F)c1 [Example 97, 5-([1,2,4]triazolo[1,5-α]pyridin-6-yl)-N-(2-fluoro-4-methoxyphenyl)-1-(6-methylpyridin-2-yl)-1H-pyrazole-3-carboxyamide] has an IC50 of 10 to 100 nM.
With COc1ccc(NC(=O)c2cc(-c3ccc4ncnn4c3)n(-c3cccc(C)n3)n2)cc1F [Example 98, 5-([1,2,4]triazolo[1,5-α]pyridin-6-yl)-N-(3-fluoro-4-methoxyphenyl)-1-(6-methylpyridin-2-yl)-1H-pyrazole-3-carboxyamide] the IC50 was 5.3 nM.
Cc1cccc(-n2nc(C(=O)Nc3ccccc3OC(F)(F)F)cc2-c2ccc3ncnn3c2)n1 [Example 99, 5-([1,2,4]triazolo[1,5-α]pyridin-6-yl)-1-(6-methylpyridin-2-yl)-N-(2-(trifluoromethoxy)phenyl)-1H-pyrazole-3-carboxyamide] gave an IC50 of about 10 nM.
Cc1cccc(-n2nc(C(=O)Nc3cccc(OC(F)(F)F)c3)cc2-c2ccc3ncnn3c2)n1 [Example 100, 5-([1,2,4]triazolo[1,5-α]pyridin-6-yl)-1-(6-methylpyridin-2-yl)-N-(3-(trifluoromethoxy)phenyl)-1H-pyrazole-3-carboxyamide] was tested, and the IC50 was 10 to 100 nM.
